How the values were obtained:
Type in all cases: in vivo
[1] = system: Echinochloa crus-galli (ECHCG); assay: Pre-emergence herbicide glasshouse test; conditions: pre-emergence (sprayed after one day cultivation), 250 g/ha, evaluated after 13 days
Protocol: (§1) Seeds of a variety of test species are sown in standard soil in pots Amaranthus retoflexus (AMARE), Echinochloa crus-galli (ECHCG), Setaria faberi (SETFA)). After cultivation for one day (pre-emergence) or after 8 days cultivation (post-emergence) under controlled conditions in a glasshouse (at 24/16° C., day/night; 14 hours light; 65% humidity), the plants are sprayed with an aqueous spray solution derived from the formulation of the technical active ingredient in acetone/water (50:50) solution containing 0.5% Tween 20 (polyoxyethelyene sorbitan monolaurate, CAS RN 9005-64-5). Compounds are applied at 250 g/ha unless otherwise stated. The test plants are then grown in a glasshouse under controlled conditions in a glasshouse (at 24/16° C., day/night; 14 hours light; 65% humidity) and watered twice daily. After 13 days for pre and post-emergence, the test is evaluated for the percentage damage caused to the plant. The biological activities are shown in the following table on a five-point scale (5=81-100%; 4=61-80%; 3=41-60%; 2=21-40%; 1=0-20%).

Setaria faberi (SETFA) [2] = assay: Pre-emergence herbicide glasshouse test; conditions: pre-emergence (sprayed after one day cultivation), 250 g/ha, evaluated after 13 days
Protocol: as §1

[3] = system: Amaranthus retoflexus (AMARE); assay: Pre-emergence herbicide glasshouse test; conditions: pre-emergence (sprayed after one day cultivation), 250 g/ha, evaluated after 13 days
Protocol: as §1

[4] = system: Echinochloa crus-galli (ECHCG); assay: Post-emergence herbicide glasshouse test; conditions: post-emergence (sprayed after 8 days cultivation), 250 g/ha, evaluated after 13 days
Protocol: as §1

Setaria faberi (SETFA) [5] = assay: Post-emergence herbicide glasshouse test; conditions: post-emergence (sprayed after 8 days cultivation), 250 g/ha, evaluated after 13 days
Protocol: as §1

[6] = system: Amaranthus retoflexus (AMARE); assay: Post-emergence herbicide glasshouse test; conditions: post-emergence (sprayed after 8 days cultivation), 250 g/ha, evaluated after 13 days
Protocol: as §1

Row | Structure (SMILES) | percentage damage caused to the plant, five-point scale, ECHCG [1] | percentage damage caused to the plant, five-point scale, SETFA (Setaria faberi (SETFA) [2]) | percentage damage caused to the plant, five-point scale, AMARE [3] | percentage damage caused to the plant, five-point scale, ECHCG [4] | percentage damage caused to the plant, five-point scale, SETFA (Setaria faberi (SETFA) [5]) | percentage damage caused to the plant, five-point scale, AMARE [6]
1 | FC(F)(F)CCCc1cc(C(F)(F)F)nc2cccc(Oc3ncc(Cl)cn3)c12 [Compound 1.015, 5-(5-chloropyrimidin-2-yl)oxy-4-(4,4,4-trifluorobutyl)-2-(trifluoromethyl)quinoline] | 5 (5=81-100%) | 5 (5=81-100%) | 5 (5=81-100%) | 4 (4=61-80%) | 4 (4=61-80%) | 5 (5=81-100%)
2 | CC(C)c1nc(CCCC(F)(F)F)c2c(Oc3ncc(Cl)cn3)cccc2n1 [Compound 1.050, 5-(5-chloropyrimidin-2-yl)oxy-2-isopropyl-4-(4,4,4-trifluorobutyl)quinazoline] | 5 (5=81-100%) | 5 (5=81-100%) | 5 (5=81-100%) | 2 (2=21-40%) | 3 (3=41-60%) | 5 (5=81-100%)
3 | FC(F)(F)CCCc1nc(C2CCCC2)nc2cccc(Oc3ncc(Cl)cn3)c12 [Compound 1.031] | 5 (5=81-100%) | 5 (5=81-100%) | 1 (1=0-20%) | 3 (3=41-60%) | 3 (3=41-60%) | 4 (4=61-80%)
4 | CCCCCCc1nc(CCCC(F)(F)F)c2c(Oc3ncc(Cl)cn3)cccc2n1 [Compound 1.032] | 4 (4=61-80%) | 4 (4=61-80%) | 4 (4=61-80%) | 3 (3=41-60%) | 3 (3=41-60%) | 5 (5=81-100%)
5 | FC(F)(F)CCCc1ncnc2cccc(Oc3ncc(Cl)cn3)c12 [Compound 1.003, 5-(5-chloropyrimidin-2-yl)oxy-4-(4,4,4-trifluorobutyl)quinazoline] | 5 (5=81-100%) | 5 (5=81-100%) | 5 (5=81-100%) | 3 (3=41-60%) | 3 (3=41-60%) | 5 (5=81-100%)
6 | Cc1nc(CCCC(F)(F)F)c2c(Oc3ncc(Cl)cn3)ccc(Cl)c2n1 [Compound 1.019, 8-chloro-5-(5-chloropyrimidin-2-yl)oxy-2-methyl-4-(4,4,4-trifluorobutyl)quinazoline] | 4 (4=61-80%) | 4 (4=61-80%) | 2 (2=21-40%) | 3 (3=41-60%) | 2 (2=21-40%) | 4 (4=61-80%)
7 | FC(F)(F)CCCc1nc(C2CC2)nc2cccc(Oc3ncc(Cl)cn3)c12 [Compound 1.036] | 4 (4=61-80%) | 5 (5=81-100%) | 2 (2=21-40%) | 3 (3=41-60%) | 2 (2=21-40%) | 4 (4=61-80%)
8 | CCCc1nc(CCCC(F)(F)F)c2c(Oc3ncc(Cl)cn3)cccc2n1 [Compound 1.033] | 5 (5=81-100%) | 5 (5=81-100%) | 2 (2=21-40%) | 3 (3=41-60%) | 3 (3=41-60%) | 4 (4=61-80%)
9 | CCCCc1nc(C(F)(F)F)nc2cccc(Oc3ncc(Cl)cn3)c12 [Compound 1.005] | 5 (5=81-100%) | 5 (5=81-100%) | 5 (5=81-100%) | 5 (5=81-100%) | 5 (5=81-100%) | 5 (5=81-100%)
10 | Cc1nc(OCCC(F)(F)F)c2c(Oc3ncc(Cl)cn3)cccc2n1 [Compound 1.007] | 1 (1=0-20%) | 3 (3=41-60%) | 2 (2=21-40%) | 1 (1=0-20%) | 1 (1=0-20%) | 3 (3=41-60%)
11 | C=CCCc1nc(C(F)(F)F)nc2cccc(Oc3ncc(Cl)cn3)c12 [Compound 1.028, 4-but-3-enyl-5-(5-chloropyrimidin-2-yl) oxy-2 (trifluoromethyl)quinazoline] | 5 (5=81-100%) | 5 (5=81-100%) | 4 (4=61-80%) | 4 (4=61-80%) | 4 (4=61-80%) | 5 (5=81-100%)

— patent US20240032541A1, “HERBICIDAL COMPOUNDS” (SYNGENTA CROP PROTECTION AG, priority 2020, published 2024)
